Test results as given in the NIST ThermoML archive (doi:10.1016/j.jct.2018.03.007).
Numbers after ± are expanded uncertainties.

How the values were obtained:
[1] = 100 kPa, Liquid; for speed of sound: Linear variable-path acoustic interferometer; for mass density: Vibrating tube method
[2] = xn = mol fraction of the nth substance listed; conditions: 100 kPa, Liquid, x2 = 0; for speed of sound: Linear variable-path acoustic interferometer; for mass density: Vibrating tube method

Row | Compound | speed of sound ([1]; 298.15 K, Frequency=2 MHz) | mass density ([1]; 298.15 K) | speed of sound ([1]; 303.15 K, Frequency=2 MHz) | mass density ([1]; 303.15 K) | speed of sound ([1]; 308.15 K, Frequency=2 MHz) | mass density ([1]; 308.15 K) | speed of sound ([1]; 313.15 K, Frequency=2 MHz) | mass density ([1]; 313.15 K) | mass density ([2]; 298.15 K) | mass density ([2]; 303.15 K) | mass density ([2]; 308.15 K) | mass density ([2]; 313.15 K) | further results
1 | C[S+](C)[O-] [dimethyl sulfoxide] | 1485 ± 1.7 m/s | 1095.33 ± 2 kg/m3 | 1468.3 ± 1.7 m/s | 1090.32 ± 2 kg/m3 | 1451.1 ± 1.7 m/s | 1085.31 ± 2 kg/m3 | 1434.2 ± 1.7 m/s | 1080.29 ± 2 kg/m3 | – | – | – | – | –
2 | CCn1cc[n+](C)c1.O=S(=O)([O-])O [1-ethyl-3-methylimidazolium hydrogen sulfate] | 1982.8 ± 2.8 m/s | 1365.75 ± 2.5 kg/m3 | 1962.9 ± 2.8 m/s | 1362.62 ± 2.5 kg/m3 | 1943.1 ± 2.8 m/s | 1359.53 ± 2.5 kg/m3 | 1923.2 ± 2.8 m/s | 1356.41 ± 2.5 kg/m3 | – | – | – | – | –
3 | CCO [ethanol] + CCn1cc[n+](C)c1.O=S(=O)([O-])O | – | – | – | – | – | – | – | – | 785.26 ± 2 kg/m3 | 780.98 ± 2 kg/m3 | 776.66 ± 2 kg/m3 | 772.28 ± 2 kg/m3 | speed of sound ([2]; 298.15 K, Frequency=3 MHz): 1142.7 ± 1.5 m/s; speed of sound ([2]; 303.15 K, Frequency=3 MHz): 1125.3 ± 1.5 m/s; speed of sound ([2]; 308.15 K, Frequency=3 MHz): 1108.8 ± 1.5 m/s; speed of sound ([2]; 313.15 K, Frequency=3 MHz): 1091.5 ± 1.5 m/s
4 | CCO [ethanol] | – | 785.26 ± 2 kg/m3 | – | 780.98 ± 2 kg/m3 | – | 776.66 ± 2 kg/m3 | – | 772.28 ± 2 kg/m3 | – | – | – | – | speed of sound ([1]; 298.15 K, Frequency=3 MHz): 1142.7 ± 1.5 m/s; speed of sound ([1]; 303.15 K, Frequency=3 MHz): 1125.3 ± 1.5 m/s; speed of sound ([1]; 308.15 K, Frequency=3 MHz): 1108.8 ± 1.5 m/s; speed of sound ([1]; 313.15 K, Frequency=3 MHz): 1091.5 ± 1.5 m/s
5 | CCCO [propan-1-ol] + CCn1cc[n+](C)c1.O=S(=O)([O-])O | – | – | – | – | – | – | – | – | 799.96 ± 2 kg/m3 | 795.92 ± 2 kg/m3 | 791.82 ± 2 kg/m3 | 787.73 ± 2 kg/m3 | speed of sound ([2]; 298.15 K, Frequency=2 MHz): 1206.1 ± 1.6 m/s; speed of sound ([2]; 303.15 K, Frequency=2 MHz): 1189.1 ± 1.6 m/s; speed of sound ([2]; 308.15 K, Frequency=2 MHz): 1172.2 ± 1.6 m/s; speed of sound ([2]; 313.15 K, Frequency=2 MHz): 1155.4 ± 1.6 m/s
6 | C[S+](C)[O-] [dimethyl sulfoxide] + CCn1cc[n+](C)c1.O=S(=O)([O-])O | – | – | – | – | – | – | – | – | 1095.33 ± 2 kg/m3 | 1090.32 ± 2 kg/m3 | 1085.31 ± 2 kg/m3 | 1080.29 ± 2 kg/m3 | speed of sound ([2]; 298.15 K, Frequency=2 MHz): 1485 ± 1.7 m/s; speed of sound ([2]; 303.15 K, Frequency=2 MHz): 1468.3 ± 1.7 m/s; speed of sound ([2]; 308.15 K, Frequency=2 MHz): 1451.1 ± 1.7 m/s; speed of sound ([2]; 313.15 K, Frequency=2 MHz): 1434.2 ± 1.7 m/s
7 | CCCO [propan-1-ol] | 1206.1 ± 1.6 m/s | 799.96 ± 2 kg/m3 | 1189.1 ± 1.6 m/s | 795.92 ± 2 kg/m3 | 1172.2 ± 1.6 m/s | 791.82 ± 2 kg/m3 | 1155.4 ± 1.6 m/s | 787.73 ± 2 kg/m3 | – | – | – | – | –
